In US20230372263A1, “METHODS AND COMPOSITIONS FOR TREATING AMYOTROPHIC LATERAL SCLEROSIS” (Amylyx Pharmaceuticals, Inc., priority 2022, published 2023):

Experiments:
[1] = clinical; assay type: in vivo, human; details: human, in vivo; for AUC(0-t): AUC(0-last)
Procedure: (§1) • Protocol AMX3500: sparse sampling in 87 subjects with ALS. Approximately 2 samples are collected for each subject, 1 or 4 hours post dose following 12 and 24 weeks of treatment. • Protocol A35-002: rich sampling in 14 healthy adults. Approximately 21 samples are collected over 24 hours for each subject on two occasions, once following a high fat meal and the other under fasting conditions.
A total of 14 healthy subjects were enrolled in order to have no fewer than 12 subjects complete. A predefined mix of gender was selected.
Each study period followed the same study design (FIG. 1). Subjects were screened for inclusion in the study up to 28 days before dosing. Subjects were admitted to the clinical unit during Study Day −2 for Period 1 and Day −1 for Period 2 and were dosed in the morning of Day 1. On the night prior to Period 1 the subjects in the fasted/fed or fed/fasted sequence were fasted for a minimum of 10 h prior to dosing.
The solution was stirred until the powder was mostly dissolved.
Any departures from the intended regimen were recorded in the eCRFs. All dose administrations were performed in the study center under the supervision of appropriately trained staff.
Subjects were provided with a light snack and were then fasted from all food and drink (except water) until the following morning, when they were provided with a high-fat breakfast. The breakfast was consumed over a maximum period of 25 min, and dosing occurred 30 min after the start of breakfast. Subjects were encouraged to eat their meal evenly over the 25 min period. For this trial the subject was deemed compliant if they consumed >80% of the high-fat standard breakfast.
The subjects in the 24-h baseline and in the fasted condition Period remained fasted up to 4 h post-dose and were offered a standardized meal to be taken between 4.00 and 5.00 h post-dose. Subjects in the fed condition were fasted overnight and received a high-fat standard breakfast 30 minutes pre-dose and then remained fasted for 4.00 to 5.00 h post-dose when they received a standardized meal.
Venous blood samples were withdrawn via an indwelling cannula or by venipuncture according to the time schedule presented in Table 5 Table, Table 6, and Table 7.
Blood samples of approximately 4 mL were collected into 4 mL BD Vacutainer Plastic K2EDTA Tubes with Lavender Hemogard Closure, and was gently inverted approximately 8 times. The tubes were then immediately stored on ice and processed within 60 min of collection by centrifugation at 1500 g for 10 min at 2 to 8° C. The resultant plasma was separated equally into 2 aliquots and transferred to 2 mL appropriately labelled primary and backup polypropylene cryovials.
Actual elapsed time from dosing was to be used for the final plasma PK parameter calculations after database lock.

[2] = clinical; assay type: in vivo, human; details: human, in vivo; for concentration at 1 h / concentration at 4 h: both sexes
Procedure: • 1. […] Treatment is administered as one sachet daily for the initial 3 weeks and then increased if tolerated to one sachet twice daily. […] Sampling times are randomly assigned to occur at either 1 or 4 hours post-dose at the 12 week visit and the other time at the 24 week visit. • Treatment duration: 24 weeks • 2.
as §1
Subjects were advised to take the drug before a meal. […] Referred to as protocol 3500.
A study was carried out to examine plasma concentration data in various subgroups for the protocol AMX3500 Phase 2 study. This example summarizes plasma concentrations of TUDCA and 2 metabolites, also related acids, UDCA, the de-conjugated TUDCA metabolite, and GUDCA, the glycine conjugate of UDCA.
For each of the 2 treatment arms (treatment and placebo), subjects were further divided into 2 sample sequence groups for schedule of pharmacokinetic measurements: • 1. 1 hour post-dose for the Week 12 visit and 4 hours post-dose for the Week 24 visit • 2. 4 hours post-dose for the Week 12 visit and 1 hour post-dose for the Week 24 visit
Twenty-four distinct medication descriptions were identified as containing antibiotics. Dates of antibiotic use were compared to dates of visits and if the antibiotic use date range contained the visit date, then that visit was flagged for that subject's data for antibiotic use. […] These antibiotics could hypothetically be in a subject's body still if this event occurred. However, it was observed that only a small number of subjects took antibiotics near to visit dates but not overlapping visit dates. In other cases, subjects were taking antibiotics on the date of one visit but not the others. Some subjects are therefore in both categories of antibiotic use and nonuse, though no individual visits for a subject are counted in both categories at the same time.
Subjects whose race were recorded as “Black” or “African American” were evaluated according to the standard Glomerular Filtration Rate (eGFR) rating for that race. The other standard eGFR rating used, sometimes referred to as a standard for people who are White, was applied to subjects of all other races. These rates were analyzed as continuous in mL/min/1.73 m2 units and as the following categories: • 1. Less than 90 mL/min/1.73 m^2 • 2. Equal to or greater than 90 mL/min/1.73 m^2
Age was converted from a continuous variable to 2 categories: • 1. As old or older than 65 years old • 2. Younger than 65 years old
All boxplots boxes are bounded at the 25th and 75th percentile, with whiskers at 10th and 90th percentiles, outliers beyond that as points, the black line as median, and red line as mean.

[3] = Steady-state plasma concentration

C[C@H](CCC(=O)NCC(=O)O)[C@H]1CC[C@H]2[C@@H]3[C@@H](O)C[C@@H]4C[C@H](O)CC[C@]4(C)[C@H]3CC[C@]12C [GUDCA, glycoursodeoxycholic acid]
Tmax ([1]; both sexes, Tmax Median): 16 h | AUC(0-t) ([1]; both sexes, po, Geometric Mean): 4140 ng·h/mL | Cmax ([1]; both sexes, po): 381 ng/mL | Cmax ([1]; both sexes, po, Geometric Mean): 381 ng/mL | half-life ([1]; both sexes, po, T1/2, Geometric Mean): 12.7 h | AUC(0-last) Ratio of adj geo means Fed/Fasted (GMR) ([1]; both): 137.31% | AUG(0-last) ([1]; both): 5060 (88.2) ng.h/ml | Cmax Ratio of adj geo means Fed/Fasted (GMR) ([1]; both): 134.45% | MR Cmax (metabolite to parent ratio) ([1]; both): 0.571 | T1/2 ([1]; both): 12.744 h | increase in AUC(0-last), fed relative to fasted ([1]; both): ~37% | peak exposure to metabolite as % of that for parent ([1]; both): approximately 51% | time of maximum plasma concentrations (range) ([1]; both): 6.00 to 20.00 h | total exposure to metabolite based on AUC(0-last) as % of that for parent ([1]; both): approximately 95% | AUC(0-last), Adj Geo Mean ([1]; both, po): 4200 ng·h/mL | AUC(0-last), Max ([1]; both, po): 12000 ng·h/mL | AUC(0-last), Median ([1]; both, po): 3400 ng·h/mL | AUC(0-last), Min ([1]; both, po): 1840 ng·h/mL | AUC(0-last), Ratio of adj geo means Fed/Fasted ([1]; both, po): 137.31% | Cmax, Adj Geo Mean ([1]; both, po): 382 ng/mL | Cmax, Max ([1]; both, po): 1420 ng/mL | Cmax, Median ([1]; both, po): 353 ng/mL | Cmax, Min ([1]; both, po): 143 ng/mL | Cmax, Ratio of adj geo means Fed/Fasted ([1]; both, po): 134.45% | Lambda-z, Geometric Mean ([1]; both, po): 0.0543 h⁻¹ | Lambda-z, Max ([1]; both, po): 0.0544 h⁻¹ | Lambda-z, Median ([1]; both, po): 0.0543 h⁻¹ | Lambda-z, Min ([1]; both, po): 0.0544 h⁻¹ | T1/2, Max ([1]; both, po): 12.74 h | T1/2, Median ([1]; both, po): 12.744 h | T1/2, Min ([1]; both, po): 12.74 h | Tmax, Max ([1]; both, po): 20.00 h | Tmax, Min ([1]; both, po): 6.00 h | MR AUC(0-last) [1]: 1.056 | concentration at 1 h ([2]; Plasma Concentration, Mean): 1020 ng/mL | concentration at 4 h ([2]; Plasma Concentration, Mean): 1510 ng/mL | concentration at 1 h ([2]; Plasma Concentration, Median): 773 ng/mL | concentration at 4 h ([2]; Plasma Concentration, Median): 1500 ng/mL | concentration at 1 h [2, 3]: 1070 ng/mL | concentration at 4 h [2, 3]: 1320 ng/mL | steady state reached by ([2]; both): ≤ 12 Week | Plasma Concentration, Median ([2]; both, 1 h): 815.0 ng/mL | Plasma Concentration, Median ([2]; both, 4 h): 1190.0 ng/mL | Plasma Concentration, Min ([2]; both, 4 h): 20.0 ng/mL | accumulation in plasma after once- or twice-daily dosing [2]: substantial accumulation | effect of age on steady-state plasma concentration [2]: no difference | effect of mild renal insufficiency on steady-state plasma concentration [2]: no discernible difference | steady-state plasma concentrations versus endogenous levels [2]: at least an order of magnitude higher than endogenous levels

C[C@H](CCC(=O)O)[C@H]1CC[C@H]2[C@@H]3[C@@H](O)C[C@@H]4C[C@H](O)CC[C@]4(C)[C@H]3CC[C@]12C [UDCA, ursodeoxycholic acid]
AUC(0-inf) ([1]; both sexes, AUC(0-inf)): 11300 ng·h/mL | AUC(0-t) ([1]; both sexes): 5540 ng·h/mL | Cmax ([1]; both sexes): 639 ng/mL | half-life ([1]; both sexes, elimination half-lives (range)): 3.01 to 7.58 h | Cmax ([1]; both sexes, po): 639 ng/mL | AUC(0-inf) ([1]; both): 11300 ng·h/mL | AUC(0-last) Ratio of adj geo means Fed/Fasted (GMR) ([1]; both): 136.34% | AUG(0-last) ([1]; both): 5540 (72.5) ng.h/ml | Cmax Ratio of adj geo means Fed/Fasted (GMR) ([1]; both): 112.17% | Tmax Median ([1]; both): 6.000 h | increase in AUC(0-last), fed relative to fasted ([1]; both): ~36% | increase in Cmax, fed relative to fasted ([1]; both): approximately 12% | peak exposure to metabolite as % of that for parent ([1]; both): approximately 86% | time of maximum plasma concentrations (range) ([1]; both): 0.25 to 20.00 h | total exposure to metabolite based on AUC(0-last) as % of that for parent ([1]; both): approximately 127% | AUC(0-last), Adj Geo Mean ([1]; both, po): 5530 ng·h/mL | AUC(0-last), Ratio of adj geo means Fed/Fasted ([1]; both, po): 136.34% | Cmax, Adj Geo Mean ([1]; both, po): 635 ng/mL | Cmax, Ratio of adj geo means Fed/Fasted ([1]; both, po): 112.17% | Tmax Median ([1]; both, po): 6.000 h | concentration at 1 h ([2]; Plasma Concentration, Mean): 1080 ng/mL | concentration at 4 h ([2]; Plasma Concentration, Mean): 1300 ng/mL | concentration at 1 h ([2]; Plasma Concentration, Median): 592 ng/mL | concentration at 4 h ([2]; Plasma Concentration, Median): 920 ng/mL | concentration at 1 h [2, 3]: 910 ng/mL | concentration at 4 h [2, 3]: 1170 ng/mL | Plasma Concentration, Min ([2]; both): 20.0 ng/mL | Plasma Concentration, Q1 ([2]; both): 20.0 ng/mL | steady state reached by ([2]; both): ≤ 12 Week | Plasma Concentration, Mean ([2]; both, 1 h): 909.9 ng/mL | Plasma Concentration, Median ([2]; both, 1 h): 614.0 ng/mL | Plasma Concentration, Min ([2]; both, 4 h): 20.0 ng/mL | accumulation in plasma after once- or twice-daily dosing [2]: substantial accumulation | effect of age on steady-state plasma concentration [2]: no difference | effect of mild renal insufficiency on steady-state plasma concentration [2]: no discernible difference | steady-state plasma concentrations versus endogenous levels [2]: at least an order of magnitude higher than endogenous levels
